Melting point data for 88 compounds are collected here from a melting point compilation (Tetko et al.; mined from patent text by program, amines drawn as free bases though some values may be those of a salt).

As a reminder, the melting point is the temperature of the solid-liquid transition. With `O=C1c2ccccc2C(=O)N1OS(=O)(=O)c1ccc2ccccc2c1`, the melting point fell in the range of 223 to 225 °C.
Consider `CCCc1c(O)cc(O)c(C(=O)CCc2ccc(O)cc2)c1O`, for which the melting point was in the range of 216 to 218 °C.
To `CCN(CC)CCOc1ccc(C#CC(C)(C)O)cc1` belongs 64 °C; to `CN(C)C(=O)Nc1snc(S(C)(=O)=O)c1C#N`, 243 to 244 °C.
To `COc1ccc(I)cc1CCCO` belongs 68 to 70 °C; to `CCN1C(=O)C(C)(C)C(=O)N(C)c2cc(CN(CCn3ccc4oc(C)cc4c3=O)Cc3ccccc3C#N)ccc21`, 157 to 159 °C.
To `COC(=O)C(c1cc2c(cc1Cl)OCO2)c1cn(C)c2cc(Br)ccc12` (stereo not drawn) belongs 183 to 185 °C.
`CC(C)CCOc1ccc2sc(C(=O)O)cc(=O)c2c1` came in with a melting point of 208 to 209 °C.
The same measure for `CN1CCN(c2cccc(Nc3ncc4ccc(-c5cn[nH]c5)n4n3)c2)CC1`: 195 °C; for `O=C(N1CCOCC1)N1CCN(Cc2ccc3c(c2)-c2[nH]nc(-c4ccsc4)c2C3)CC1`: 188 to 190 °C; for `CC1(C)Cc2cccc(OCCNCc3cncc(C4=CCCC4)c3)c2O1`: 141 °C.
The same measure for `CCc1cccc2c(=O)c3c(cnn3C)[nH]c12`: 254 °C.
To `NCCNc1cc(-n2cccn2)nc(-c2ccco2)n1` belongs 104 to 105 °C; to `Cn1c(=O)c2c(Br)cccc2n2cnc(-c3nc(C4CC4)no3)c12`, 246 to 247 °C; to `CCS(=O)(=O)N(C)C1CCCOc2ccccc21` (stereo not drawn), 122 to 124 °C.
The compound `CCOc1ccc2c(c1)n(C1CCCCC1)c(=O)n2S(=O)(=O)c1ccc(N)cc1OC` came in with a melting point of 228 °C.
The same measure for `Oc1ccccc1-c1cc(-c2ccc(F)c(F)c2)cc(-c2ccc(Cl)cc2)n1`: 146 to 148 °C; for `O=C1NCC(CCc2ccccc2Br)O1` (stereo not drawn): 93.5 to 94.5 °C.
`N#Cc1ncccc1C(=O)OCC(Cl)(Cl)Cl`: the melting point came to 103 °C.
In turn, `CCOC(=O)CCCn1c(C(=O)NCc2nnc(C)n2-c2sc(CC)cc2C(=O)c2ccccc2Cl)cc2cc(F)ccc21` had a melting point of 127 to 128 °C.
With `CC(c1ccc(-c2ccccc2)c(F)c1)c1csc(NCCc2ccccc2)n1` (stereo not drawn), the melting point was in the range of 74.5 to 75.5 °C.
For `COc1cc(Nc2nccc(Nc3ccc(CC(=O)O)cc3)n2)cc(OC)c1OC`, the melting point fell in the range of 144 to 150 °C.
The same measure for `CCOC(=O)c1nnc(Cc2ccccc2Cl)n1C`: 87 to 88 °C.
The same measure for `CC(C)(C)OC(=O)N1CCN(C(=O)CCl)CC1`: 68 to 70 °C; for `Cc1nnc2c(Cl)nc3ccc(Cl)cc3n12`: above 280 °C.
The compound `CC1NC(=O)C2=C1c1ccc(Cl)cc1C(c1ccccc1Cl)=NC2` (stereo not drawn) had a melting point of 239 to 241 °C.
To `Cn1nc2cccc(OCC3CC3)c2c1S(N)(=O)=O` belongs 139 to 141 °C.
To `C=C(Cl)CS(=O)(=O)NC(=O)c1nc(OC)cc(OC)n1` belongs 125 to 130 °C; to `Cc1cc(Cl)cc(C(=O)CC(=O)C2CCCCC2)c1O`, 76 to 77 °C.
The same measure for `C=C1C[C@@H]2C(=O)OC(=O)[C@@H]2C1`: 50 to 51 °C; for `CN(C)CCOc1ccc2[nH]c(C(=O)N3CC(CCl)c4c3cc([N+](=O)[O-])c3cc(S(C)(=O)=O)ccc43)cc2c1` (stereo not drawn): 250 to 252 °C.
For `CC(=O)NC(=O)C(C)SC(C)=O` (stereo not drawn), the melting point lay in the range of 91 to 93 °C.
`CCOC(=O)N1CCN(CCNc2ncnc3c2sc2nc(N(C)C)c4c(c23)CC(C)(C)CC4)CC1` displayed a melting point of 138 to 140 °C.
Turning to `CCOC(=O)c1c(C)cc2nc(C)n(-c3ccccc3C)c(=O)c2c1C`, the melting point was 129 to 130 °C.
The same measure for `CCCc1c(OCCCOc2ccc3c(c2CCC)OC(C)(CCC(N)=O)CC3=O)ccc(C(C)=O)c1O` (stereo not drawn): 77 to 79 °C.
As to `CCCCCCCCOc1ccc(-c2ncc(O)cc2Cl)cc1`, the melting point fell in the range of 128 to 130 °C.
`Nc1cc(=O)n(Cc2ccc(Cl)c(Br)c2)[nH]1` had a melting point of 171 to 172 °C.
To `COc1ccc2nc(NC(=O)C(CC3CCCC3)c3ccc(S(=O)(=O)N(C)C)cc3)sc2n1` (stereo not drawn) belongs 229 to 234 °C; to `COC1OC(=O)CC(C)(C)C1O` (stereo not drawn), 72 °C.
Compound `N#Cc1ncc(NCCO)nc1N1CCN(c2ccc(F)cc2)CC1` displayed a melting point of 149 to 151 °C.
The same measure for `Cc1ccc2sc3cc(C(=O)O)ccc3c(=O)c2c1`: above 250 °C; for `OCc1ccnc(OCc2cn3c(Cl)cccc3n2)c1`: 143 to 144 °C; for `COc1cn(-c2ccccc2F)nc(-c2ccnn2-c2ccccc2)c1=O`: 163 to 165 °C.
To `O=C(NC(=O)c1c(F)cccc1F)Nc1cc(Cl)c(Oc2ccc(S(=O)(=O)c3ccc(Cl)cc3)cc2)c(Cl)c1` belongs 207 to 209 °C; to `COc1ccc(COCc2cccc(C(=O)O)c2)cc1OC1CC2CCC1C2` (stereo not drawn), 77 to 79 °C.
To `C#CCOc1nc(N)nc(-c2ccccc2)c1-c1ccc(=O)n(C(C)C)n1` belongs 145 to 147 °C; to `CCC(CC)(NCCCn1cnc(CCNC(=O)c2ccc(C#N)cc2)c1)c1ccccc1`, 107 to 109 °C; to `O=c1oc(C=Cc2ccccc2)nc2ccccc12`, 145 to 147 °C.
Compound `COC(=O)CCCc1cc2cc(C(F)(F)F)ccc2n1S(=O)(=O)c1cccc(C(C)C)c1` showed a melting point of 115 °C.
The same measure for `COCCOc1ccc(C#CC2(O)CN3CCC2CC3)cc1` (stereo not drawn): 148 to 149 °C.
`O=C(CCl)Nc1nc2cc3nc(NC(=O)CCl)sc3cc2s1` gave a melting point of 330 °C.
`O=C(O)CCOc1ccccc1CNC(=O)C1Cc2ccccc2N1S(=O)(=O)c1ccc(-c2cccc(C(F)(F)F)c2)cc1` (stereo not drawn): the melting point came out at 100 °C.
To `NS(=O)(=O)c1cc2c(cc1Cl)NC(C1CCCCC1)NS2(=O)=O` (stereo not drawn) belongs 274 to 276 °C; to `CC(=O)Cc1nc(/C=C/c2cccc(Cl)c2F)no1`, 75 to 77 °C; to `C(=C\c1cccs1)/c1nc(COc2ccc(CCCn3ccnc3)cc2)co1`, 131 to 132 °C.
In the case of `NC(=O)CNC(=O)COC[C@@H]1CCCN1C(=O)OCc1ccccc1`, the melting point fell in the range of 110 to 111 °C.
To `CC(=O)N[C@@H](C)COc1ccc2nc(-c3cc(F)c(OCC4CC4)cc3F)oc2c1F` belongs 153 °C.
Regarding `O=C1CC[C@@H](CI)N1Cc1ccccc1`, the melting point lay in the range of 92 to 94 °C.
To `O=c1c(N2CCNCC2)nc2ccccc2n1-c1cccc(F)c1` belongs 149 to 150 °C; to `Cc1cc(-c2nc3c(F)c(F)ccc3s2)ccc1N`, 204 to 205 °C.
To `CCN(CC)C(=O)CCc1nc(-c2cccc(OC)c2)nc2ccccc12` belongs 87 °C; to `COc1cc(C=C2SC(N3CCCC3)=NC2=O)cc(-c2ccc(O)c(C34CC5CC(CC(C5)C3)C4)c2)c1O`, 353 to 355 °C; to `CC(NC(Nc1cc(C(F)(F)F)cc(C(F)(F)F)c1)=C(C#N)S(C)(=O)=O)C(C)(C)C` (stereo not drawn), 181 to 182 °C.
In the case of `COc1ccc(-n2nc(O)c3[nH]c4cc(Cl)ccc4c(=O)c3c2=O)c(C)c1`, the melting point was in the range of 354 to 356 °C.
To `CCOC(=O)/C(=N\O[C@H]1CC[C@H](Cl)CC1)c1csc(N)n1` belongs 155 °C; to `CC1CN(c2ccc(Cl)c(Cl)c2)N=C1NC=O` (stereo not drawn), 150 to 152 °C; to `Cc1ccc(N2CCN(CCCCl)CC2)cc1`, 34 to 36 °C.
`O=C(O)C=CC(=O)c1ccc(Oc2cccc(Cl)c2)cc1` displayed a melting point of 110 to 111 °C.
`CCCCOc1c(CNC(=O)OCC2c3ccccc3-c3ccccc32)n(CC(C)C)c(=O)c2ccc(-c3nc(C)c(C(=O)OCC)s3)cc12` returned a melting point of 203 to 204 °C.
To `O=S(=O)(Oc1ccc2ncc3c(c2c1)CCCC3)C(F)(F)F` belongs 80 to 81 °C; to `CS(=O)(=O)c1ccc(N2CCc3ccccc32)c([N+](=O)[O-])c1`, 152 to 154 °C; to `COc1cc(CCNC(=O)[C@@H](NS(C)(=O)=O)C(C)C)ccc1OCc1cccc2ccccc12`, 153 to 157 °C.
As to `COC(OC)C(=O)NC1CCN(C[C@@]23C[C@@H](c4ccccc42)c2ccc(Cl)cc23)CC1`, the melting point is 188 to 189 °C.
In turn, `CCOP(=O)(Cc1ccc2cc(CP(=O)(OCC)OCC)ccc2c1)OCC` came in with a melting point of 151 to 153 °C.
To `CC(C)(C)c1ccc(-c2ccc3c(-c4ccc(C(C)(C)C)cc4)cc4c5cc(-c6ccc(C(C)(C)C)cc6)ccc5c(-c5ccc(C(C)(C)C)cc5)cc4c3c2)cc1` belongs 376 °C; to `CC(=O)c1ccc(NC(=O)N2CCN(c3ncnc4c(Cl)cccc34)CC2)cc1`, 208 to 209 °C; to `COc1cc(Nc2ncc(-c3ccccc3N(C)C(=O)CN3CCOCC3)o2)ccc1-c1cnco1`, 179 to 181 °C.
The same measure for `C=C(COCc1ccccc1)C(O)C(NC=O)C(=O)OCC` (stereo not drawn): 112 to 114 °C; for `CC(C)(C)C(=O)COc1ccc(Cl)cn1`: 68 to 69.5 °C.
As for `CCCc1c(OCC(O)COc2cc(NC(=O)c3nnn[nH]3)c(C)cc2Br)ccc(C(C)=O)c1O` (stereo not drawn), the melting point lay in the range of 155 to 158 °C.
As to `COc1ccc(CCNC(=O)C(F)(F)F)cc1S(N)(=O)=O`, the melting point lay in the range of 165 to 166 °C.
The same measure for `COc1cc(OCCOc2ccccc2)c2c(=O)[nH]c(-c3cc(C)nc(C)c3)nc2c1`: 172 to 173 °C; for `O=C(O)c1csnc1-c1ccc(Cl)c(Cl)c1`: 247 to 248 °C.
With `Cc1cc(-c2ccc(OC(C)C(O)CCc3cccnc3)cc2)ccc1C#N` (stereo not drawn), the melting point was in the range of 93.5 to 94.5 °C.
The same measure for `O=C(O)c1ccc2c(c1)C=C(Cn1ccnc1)CO2`: 258 to 259 °C.
The same measure for `Oc1cccc(-c2nc3n(n2)CCc2ccccc2-3)c1`: 201 to 202 °C.
The same measure for `Cc1noc(C)c1S(=O)(=O)Nc1ccc(Cl)cc1[N+](=O)[O-]`: 130 to 131 °C; for `O=C1OCCC=C1c1ccc(F)c(F)c1`: 72 to 78 °C.
